The text below walks through data of publication PMC2639639, “Identification of Three Classes of Heteroaromatic Compounds with Activity against Intracellular Trypanosoma cruzi by Chemical Library Screening” (PLoS Neglected Tropical Diseases, 2009).

The structures appear in SMILES notation. Read-outs that look alike come from different tables or passages of the source.

The test system of series [1] is T. cruzi (Tulahuen strain) expressing β-galactosidase. In words: T. cruzi growth inhibition assay (β-gal activity, infection of NIH/3T3 cells). Format: cell-based, Trypanosoma cruzi. On the procedure:
NIH/3T3 cells and parasites were harvested, washed once and resuspended in DMEM supplemented with 2% FBS and Pen-Strep-Glut. […] Different numbers of NIH/3T3 cells were seeded in 96-well plates. After 3 h, compounds were added at the indicated concentrations and mixed by pipetting. BZN tablets (Rochagan, Roche) dissolved in DMSO and 4 µM Amphotericin B solution (Sigma-Aldrich) were used as positive controls. Different numbers of T. cruzi parasites were added in a final volume of 200 µl/well. After 4 days, 50 µl of PBS containing 0.5% of the detergent NP40 and 100 µM Chlorophenol Red-β-D-galactoside (CPRG) (Fluka) were added. Plates were incubated at 37°C for 4 h and absorbance was read at 590 nm using a Tecan Spectra Mini plate reader.
To calculate the Z′ factor, we used the formula described by Zhang et al.: Z′ = 1−[(3σc++3σc−) / |μc+−μc−|] where σc+ = standard deviation (SD) of positive control, σc− = SD of negative control, μc+ = mean of positive control, μc− = mean of negative control. Subsequently, the best ratio was used for all growth inhibition assays (50.000 cells and parasites, multiplicity of infection (MOI) 1∶1).
To determine IC50 values, β-gal activity (Abs590) was plotted against compound concentration for each compound. The IC50 was determined as the concentration at which the activity (absorbance) was half that in the absence of compound. Mean IC50 values are the average of independent experiments performed in triplicate on three different days.

Series [2] deals with NIH/3T3 cells. In words: Cytotoxicity assay (Alamar Blue) on NIH/3T3 cells. In kind it is cell-based. The settings on record: 4-day assay on NIH/3T3 cells. How it is done:
(§1) Cells (NIH/3T3 or HepG2) were washed and plated at a density of 50,000 cells/well of 96-well plates in 200 µl and allowed to adhere for 3 h. Twenty-four hour assays were done in DMEM without phenol red supplemented with 10% FBS and Pen-Strep-Glut, while 4-day assays were done in the same medium containing 2% FBS. Drugs were added and mixed. After 1 or 4 days, 20 µl of Alamar Blue (Biosource, Invitrogen) was added. Plates were incubated for 4 h (HepG2) or 6 h (NIH/3T3) at 37°C and fluorescence was read using a Labsystems Fluoroskan II plate reader (excitation: 544 nm, emission: 590 nm) .
(§2) To determine TC50 values, fluorescence was plotted against inhibitor concentration. TC50 was determined as the concentration at which cytotoxicity (fluorescence) was half that in the absence of inhibitor.
(The colour change of resazurin is a common sign of viable cells or microbes.)

In series [3] the test system is mammalian cells. In words: Cytotoxicity on mammalian cells (cell type not given). Format: cell-based. The settings on record: cells and duration not stated. How it is done:
as §1, §2

Setting [4] is: Trypanosoma cruzi, TULAHUEN, NIH3T3, 96 h, β-gal T. cruzi Tulahuen, 50.000 NIH/3T3 cells and parasites (MOI 1:1), 4 days, read-out: IC50 Intracellular growth.
The mark [5] stands for this setting: Trypanosoma cruzi, TULAHUEN, NIH3T3, 96 h, read-out: IC50 Intracellular growth.
Setting [6] is: Trypanosoma cruzi, TULAHUEN, NIH3T3, other confirmed hits that retained activity at 5 µg/ml, read-out: IC50 < 1 µg/ml.
The mark [7] stands for this setting: β-gal T. cruzi Tulahuen, 50.000 NIH/3T3 cells and parasites (MOI 1:1), 4 days, read-out: IC50 Intracellular growth.

Turning to `O=C(NN=Cc1ccc(-c2cccc(Cl)c2Cl)o1)c1cccnc1` [PCH2, N′-{[5-(2,3-dichlorophenyl)-2-furyl]methylene}nicotinohydrazide], the IC50 in series [1] (setting [4]) stood at 1930 ± 707 nM.
In the case of `O=C(NN=Cc1ccc(-c2cccc(Cl)c2Cl)o1)c1ccc(Br)cc1` [PCH4, 4-bromo-N′-{[5-(2,3-dichlorophenyl)-2-furyl]methylene}benzohydrazide], the IC50 in series [1] (setting [4]) was greater than 10000 nM.
Take `O=C(Cn1cnc([N+](=O)[O-])n1)Nc1cccc(C(F)(F)F)c1` [NT5, 2-(3-nitro-1H-1,2,4-triazol-1-yl)-N-[3-(trifluoromethyl)phenyl]acetamide]: the IC50 in series [1] (setting [4]) is 1060 ± 385 nM.
Turning to `COc1cc(NC(=O)Cn2cnc([N+](=O)[O-])n2)cc([N+](=O)[O-])c1` [NT2, N-(3-methoxy-5-nitrophenyl)-2-(3-nitro-1H-1,2,4-triazol-1-yl)acetamide], the IC50 in series [1] (setting [5]) was determined as 2630 ± 808 nM.
Regarding `O=C(NN=Cc1cc(Br)cc(Br)c1O)c1cccc(N2CCCC2=O)c1` [N'-(3,5-dibromo-2-hydroxybenzylidene)-3-(2-oxo-1-pyrrolidinyl)benzohydrazide], in series [2], the “TC50 > 25 mg/ml” value is “NO (> 25 mg/ml)”. Moreover, in series [1] (setting [6]), the IC50 is greater than 1 µg/mL.
For the compound `O=C(CCCn1cnc([N+](=O)[O-])n1)Nc1cc(C(F)(F)F)ccc1Cl` [NT8, N-[2-chloro-5-(trifluoromethyl)phenyl]-4-(3-nitro-1H-1,2,4-triazol-1-yl)butanamide], the IC50 in series [1] (setting [4]) worked out at 983 ± 388 nM.
As to `O=C(Cn1cnc([N+](=O)[O-])n1)Nc1ccc(Cl)cc1C(F)(F)F` [NT7, N-[4-chloro-2-(trifluoromethyl)phenyl]-2-(3-nitro-1H-1,2,4-triazol-1-yl)acetamide], in series [1] (setting [4]), the IC50 turned out to be 1290 ± 463 nM.
`CCN(CC)c1ccc(N=Cc2cccc(C)c2)cc1` [N,N-diethyl-N'-(3-methylbenzylidene)-1,4-benzenediamine]: the “TC50 > 25 mg/ml” value in series [2] is reported as “YES (> 25 mg/ml)”. Further, the IC50 in series [1] (setting [6]) is greater than 1 µg/mL.
`CCOC(=O)c1ccc(Nc2nc3nonc3nc2NC(C)C)cc1` [ethyl 4-{[6-(isopropylamino)[1,2,5]oxadiazolo[3,4-b]pyrazin-5-yl]amino}benzoate]: the “TC50 > 25 mg/ml” value in series [2] is recorded as “NO (> 25 mg/ml)”. Also, the IC50 in series [1] (setting [6]) is greater than 1 µg/mL.
Consider `CCOc1ccc(-c2cn3c4ccccc4n(CCN(CC)CC)c3n2)cc1.Cl` [{2-[2-(4-ethoxyphenyl)-9H-imidazo[1,2-a]benzimidazol-9-yl]ethyl}diethylamine hydrochloride], for which the “TC50 > 25 mg/ml” value in series [2] is “NO (> 25 mg/ml)”. In addition, the IC50 in series [1] (setting [6]) is greater than 1 µg/mL.
Regarding `O=C(CCCn1cnc([N+](=O)[O-])n1)Nc1ccccc1C(F)(F)F` [NT9, 4-(3-nitro-1H-1,2,4-triazol-1-yl)-N-[2-(trifluoromethyl)phenyl]butanamide], in series [1] (setting [4]), the IC50 was found to be 3020 ± 1390 nM.
Turning to `O=C(NN=Cc1ccc(-c2ccccc2Cl)o1)c1cccnc1` [PCH10, N′-{[5-(2-chlorophenyl)-2-furyl]methylene}nicotinohydrazide], in series [1] (setting [4]), the IC50 came out at 720 ± 183 nM.
As for `O=c1c2c3c(sc2[nH]c(=S)n1Cc1ccccc1)CCC3` [3-benzyl-2-thioxo-1,2,3,5,6,7-hexahydro-4H-cyclopenta[4,5]thieno[2,3-d]pyrimidin-4-one], the “TC50 > 25 mg/ml” value in series [2] is “NO (> 25 mg/ml)”. Also, the IC50 in series [1] (setting [6]) is greater than 1 µg/mL.
As to `Cc1cc(Cl)cc(C)c1OCCCCCn1ccnc1` [CX5, 1-[5-(4-chloro-2,6-dimethylphenoxy)pentyl]-1H-imidazole], the IC50 in series [1] (setting [4]) worked out at 20.5 nM.
With `O=C(NN=Cc1ccc(-c2ccccc2Cl)o1)c1ccccn1` [PCH6, N′-{[5-(2-chlorophenyl)-2-furyl]methylene}-2-pyridinecarbohydrazide], the values for the IC50 in series [1] (setting [4]) and in series [1] (setting [7]) were 2 nM and 2.1 nM, respectively. The compound also yielded a TC50 in series [3] of 18500 nM.
Take `O=C(Cn1cnc([N+](=O)[O-])n1)Nc1cc(Oc2cncc(Cl)c2)cc([N+](=O)[O-])c1` [NT4, N-{3-[(5-chloro-3-pyridinyl)oxy]-5-nitrophenyl}-2-(3-nitro-1H-1,2,4-triazol-1-yl)acetamide]: the IC50 in series [1] (setting [5]) turned out to be 1270 ± 251 nM.
Regarding `Cc1cc(Cl)cc(C)c1OCCCCn1ccnc1` [CX6, 1-[4-(4-chloro-2,6-dimethylphenoxy)butyl]-1H-imidazole], the IC50 in series [1] (setting [4]) is 71.6 ± 37 nM.
As to `O=C(Cn1cnc([N+](=O)[O-])n1)Nc1cc(C(F)(F)F)ccc1Cl` [NT6, N-[2-chloro-5-(trifluoromethyl)phenyl]-2-(3-nitro-1H-1,2,4-triazol-1-yl)acetamide], in series [1] (setting [4]), the IC50 was determined as 1130 ± 378 nM.
Consider `O=C(NN=Cc1ccc(-c2cccc(Cl)c2Cl)o1)c1ccncc1` [PCH3, N′-{[5-(2,3-dichlorophenyl)-2-furyl]methylene}isonicotinohydrazide], for which, in series [1] (setting [4]), the IC50 is greater than 10000 nM.
As to `COc1ccc(-c2ccc(C=NNC(=O)c3ccccn3)o2)cc1Cl` [PCH8, N′-{[5-(3-chloro-4-methoxyphenyl)-2-furyl]methylene}-2-pyridinecarbohydrazide], the IC50 worked out at 1600 nM in series [1] (Trypanosoma cruzi, TULAHUEN, NIH3T3, 96 h, β-gal T. cruzi Tulahuen in NIH/3T3 cells, 4 days, read-out: IC50 T. cruzi growth inhibition) and 1680 ± 490 nM in series [1] (setting [4]).
For `Cc1cc(OCCCCn2ccnc2)cc(C)c1Cl` [CX3, 1-[4-(4-chloro-3,5-dimethylphenoxy)butyl]-1H-imidazole], the IC50 in series [1] (setting [4]) is 5.1 nM.
Turning to `O=C(NN=Cc1ccc(-c2ccc(Cl)c(Cl)c2)o1)c1ccccn1` [PCH7, N′-{[5-(3,4-dichlorophenyl)-2-furyl]methylene}-2-pyridinecarbohydrazide], the IC50 in series [1] (setting [4]) came to 35 ± 20 nM.
Same read-out and setting: for `O=C(NN=Cc1ccc(-c2cccc(Cl)c2)o1)c1ccccn1` [PCH5, N′-{[5-(3-chlorophenyl)-2-furyl]methylene}-2-pyridinecarbohydrazide] the value was 29 ± 20 nM; for `O=C(NN=Cc1ccc(-c2cc(Cl)ccc2Cl)o1)c1ccccc1` [PCH9, N′-{[5-(2,5-dichlorophenyl)-2-furyl]methylene}benzohydrazide], 960 ± 300 nM.
For the compound `O=C(Cn1cnc([N+](=O)[O-])n1)Nc1cc(Oc2cccnc2)cc([N+](=O)[O-])c1` [NT3, N-[3-nitro-5-(3-pyridinyloxy)phenyl]-2-(3-nitro-1H-1,2,4-triazol-1-yl)acetamide], in series [1] (setting [5]), the IC50 is 4920 ± 1280 nM.
Regarding `Br.Cc1ccnc(Nc2nc(-c3ccccn3)cs2)c1` [4-methyl-N-[4-(2-pyridinyl)-1,3-thiazol-2-yl]-2-pyridinamine hydrobromide], the “TC50 > 25 mg/ml” value in series [2] is “NO (> 25 mg/ml)”. In addition, the IC50 in series [1] (setting [6]) was less than 1 µg/mL.
For the compound `Cc1ccc2n(c1)cc(C)[n+]2CC(=O)c1ccc(-c2ccccc2)cc1.[Br-]` [1-[2-(4-biphenylyl)-2-oxoethyl]-2,6-dimethylimidazo[1,2-a]pyridin-1-ium bromide], in series [2], the “TC50 > 25 mg/ml” value was “YES (> 25 mg/ml)”. For the same compound, in series [1] (setting [6]), the IC50 was greater than 1 µg/mL.
`COc1ccc(NC(=S)NC(=O)c2ccco2)cc1` [N-{[(4-methoxyphenyl)amino]carbonothioyl}-2-furamide]: the “TC50 > 25 mg/ml” value in series [2] is “YES (> 25 mg/ml)”. In series [1] (setting [6]), the IC50 is greater than 1 µg/mL.
Take `Cc1cc(OCCCCCn2ccnc2)cc(C)c1Cl` [CX2, 1-[5-(4-chloro-3,5-dimethylphenoxy)pentyl]-1H-imidazole]: the values for the IC50 in series [1] (setting [4]) and in series [1] (setting [7]) were 2 nM and 2.5 nM, respectively. For the same compound, in series [3], the TC50 turned out to be 19500 nM.
In the case of `Cc1cc(Cl)cc(C)c1OCCCCCCn1ccnc1` [CX4, 1-[6-(4-chloro-2,6-dimethylphenoxy)hexyl]-1H-imidazole], in series [1] (setting [4]), the IC50 was 300 nM.
